Assay results as given in patent US20230226036A1, “ARIMOCLOMOL FOR TREATING GAUCHER DISEASE” (ORPHAZYME A/S, priority 2020, published 2023).
Entries after “also recorded” stand apart in the source; their conditions may differ.

What was measured:
[1] = test system: serum chitotriosidase activity; assay: Serum chitotriosidase activity, phase 2 trial in Gaucher disease type 1 or 3 (primary endpoint); type: in vivo, human; settings: for Relative change in chitotriosidase activity from baseline versus placebo: 6 months, all dosage groups, significance not achieved (p=0.4), FIG. 2
Method: This is a placebo-controlled, randomised, double-blinded trial evaluating the response of 3 dose levels of arimoclomol on various pharmacodynamic (PD) biomarkers in blood and cerebrospinal fluid (CSF) as indicators of enhanced glucocerebrosidase (GBA) enzyme activity in GD1 and GD3.
(§1) Eligible GD1 and GD3 patients were randomised into 4 groups on a 1:1:1:1 basis to receive arimoclomol 300 mg/day, arimoclomol 600 mg/day, arimoclomol 1200 mg/day, or placebo treatment (3 times daily [t.i.d] dosing).
The primary efficacy endpoint of the trial was the percentage change in serum chitotriosidase activity (marker of macrophage activation) from baseline to 6 months, where baseline was defined as the mean value of the predose visits (Visit 1 and Visit 2).
The primary efficacy endpoint was analysed using an Analysis of Covariance (ANCOVA) model on the ITT population. The log of chitotriosidase activity was used in the analysis. The response variable for ANCOVA model was the log of chitotriosidase activity at 6 months, and the independent variables included IMP dose as randomized (300 mg/day, 600 mg/day, 1200 mg/day, and 0 mg/day [for placebo]) as a continuous variable, GD type, and log of baseline chitotriosidase. Supportive analysis was conducted using the same model but with the dose actually received at Visit 3 following possible dosing adjustment based on PK assessment at Visit 2.

liver size = assay: Liver size by ultrasound, phase 2 trial in Gaucher disease type 1 or 3; type: in vivo, human; settings: 6 months, 300/600/1200 mg/day, dose-trend effect p<0.05, FIG. 3
Method: as §1
(§2) The imaging efficacy endpoint consisted of the change in the size (centimetres) of the liver and spleen (assessed by ultrasound) at 6 months and bi-annually until trial end. Clinical GD severity endpoints (all patients): • Gaucher disease Type 1 Disease Severity Scoring System (GD1-DS3) • Modified Severity Scoring Tool (mSST)
(§3) Secondary efficacy endpoints, including change in weight and height, change in liver size, change in spleen size, and change in biomarkers (blood and CSF) relative to baseline (where appropriate) were analysed using an ANCOVA model with treatment group (dose actually received at Visit 3 following possible dosing adjustment based on PK assessment at Visit 2, or placebo) and corresponding baseline value as covariate. For the biomarker analysis, appropriate data transformation was conducted before statistical analysis, if necessary.

spleen size = assay: Spleen size by ultrasound, phase 2 trial in Gaucher disease type 1 or 3; type: in vivo, human; settings: 6 months, 300/600/1200 mg/day, dose trend analysis p<0.10, FIG. 4
Method: as §1, §2, §3

[2] = test system: glycosylsphingosine (lyso-Gb1); assay: Plasma glycosylsphingosine (lyso-Gb1), phase 2 trial in Gaucher disease; type: in vivo, human; settings: after 6 months, statistical significance not achieved, FIG. 6
Method: as §1
(§4) The exploratory biomarker endpoints, as measured in the blood, included: • Change* in plasma glucosylsphingosine (GlcSph) levels at 6 months and every 6 months until trial end. • Change* in haemoglobin, ferritin, and platelet levels at 6 months and every 6 months until trial end. • Change* in GBA enzyme activity (leukocytes) at 6 months and every 6 months until trial end. • Change* in serum macrophage inflammatory protein-1b (MIP-1P; cytokine for bone involvement) at 6 months and every 6 months until trial end.
as §3

haemoglobin = assay: Haemoglobin in patients anaemic at baseline, phase 2 trial in Gaucher disease; type: in vivo, human; settings: highest dose group (1200 mg/day), time-trend analysis p<0.05, FIG. 5
Method: as §1, §4, §3

[3] = background statement; cited from earlier work
[4] = Plasma exposure (AUC0-8) estimated by population PK modelling in GD1/GD3 patients; type: in vivo, human; settings: 300, 600, 1200 mg/day t.i.d. oral (weight-adjusted), FIG. 1
Excerpt: All patients underwent an arimoclomol single-dose (100-mg single dose for the 300-mg/day treatment group, 200-mg single dose for the arimoclomol 600-mg/day treatment group, 400-mg single dose for the arimoclomol 1200-mg/day treatment group, or corresponding dose per kg for paediatric patients prior to the effective date of this protocol. Single dose pharmacokinetics (PK) was done with corresponding dose per kg for all patients randomised after the effective date of this protocol) pharmacokinetic (PK) evaluation at Visit 2 following randomization to confirm the suitability (in terms of target investigational medicinal product (AUC0-8—area under the curve [AUC] from time 0 to 8 hours [AUC0-8]) of the selected doses in the trial. Following the single dose, blood samples for PK analysis were collected at predose, and 0.5, 1, 2, 4, and 8 hours postdose. […] The corresponding data was evaluated by an independent assessor to verify the AUC0-8. […]
In the event that the AUC was above the target, or an unexpected profile which could potentially impact the safety of the patient was obtained, and the patient required a dose reduction, the patient was dispensed a reduced dose of IMP (blinded) at Visit 3. […] Additional blood samples for quantitative population PK analysis of arimoclomol were collected predose and at 0.5 hours postdose at Visit 5, and predose and 1.5 hours postdose at Visit 7. […]

Gaucher's disease type 1 = assay: Clinical GD1 severity score (GD1-DS3), phase 2 trial in Gaucher disease; type: in vivo, human; settings: 6 months, statistical significance not achieved
Method: as §2, with “Eligible GD1 and GD3 patients were randomised into 4 groups on a 1:1:1:1 basis to receive arimoclomol 300 mg/day, arimoclomol 600 mg/day, arimoclomol 1200 mg/day, or placebo treatment (3 times daily [t.i.d] dosing). The” for “The”

[O-][n+]1cccc(/C(Cl)=N/OC[C@H](O)CN2CCCCC2)c1 [arimoclomol, (+)-(R)—N-[2-hydroxy-3-(1-piperidinyl)-propoxy]-pyridine-1-oxide-3-carboximidoyl chloride]
Relative change in chitotriosidase activity from baseline versus placebo [1]: relative reduction in chitotriosidase activity from baseline | Relative change in chitotriosidase activity from baseline versus placebo ([1]; listed as Arimoclomol): relative reduction in serum chitotriosidase activity | Change in chitotriosidase activity across treatment groups ([1]; baseline to 6 months, 300/600/1200 mg/day vs. placebo): lower increase in arimoclomol groups vs. placebo | Liver size relative to placebo (liver size): dose-dependent effect; also recorded: Clinically meaningful dose-dependent reductions | Spleen size relative to placebo (spleen size): dose-dependent effect; also recorded: Clinically meaningful dose-dependent reductions | Change from baseline of plasma glycosylsphingosine (lyso-Gb1) [2]: trend towards a dose-dependent increase | Haemoglobin over time (haemoglobin): time-dependent increase in haemoglobin | Blood-brain barrier passage [3]: ability to cross the blood-brain barrier | Plasma exposure (AUC) [4]: dose-dependent increase in plasma exposure | Clinical GD1 severity score (Gaucher's disease type 1): directional dose-dependent reduction
